From patent US8629159B2, “Thiazolidinedione analogues” (Metabolic Solutions Development Company, LLC, priority 2006, dated 2014)
Marks after values point to notes of the source that are not given here.

Columns and labels:
[1] = test system: Male Dahl salt-sensitive rats; experiment: Antihypertensive action in hypertensive Dahl salt-sensitive rats (high salt diet), mean blood pressure by direct femoral arterial cannulation; format: in vivo, rat
Experimental: Male Dahl salt-sensitive rats were made hypertensive by feeding of a high salt diet (4% salt) for 3 weeks and then treated daily with the indicated dose of hydrochlorothiazide (HCTZ), compound 1, or the combination of HCTZ and compound 1, as compared to the vehicle alone (1% carboxymethylcellulose/0.01% Tween 20) by oral gavage for 8 days. Mean blood pressure was measured by direct femoral arterial cannulation under fed conditions on day 7 and after a 6 hour fast on day 8.
Referring to FIG. 2 and Table C above, the antihypertensive action of compound 1 is additive with hydrocholothiazide (HCTZ). Data are mean and (SEM) mean blood pressure taken by direct cannulation. N=5; * p<0.05 less than blood pressure in HCTZ-treated rats.

male Sprague-Dawley rats = experiment: Prevention of Medrol-induced hypertension, mean blood pressure by direct femoral arterial cannulation; format: in vivo, rat; conditions: hypertension generated by treatment with a glucocorticoid
Experimental: Hypertension was induced in normal male Sprague-Dawley rats by daily dosing with the glucocorticoid methylprednisolone (Medrol) for 8 days. Separate groups of rats received the vehicle (1% carboxymethylcellulose/0.01% Tween 20) by oral gavage and some of both the vehicle-treated and Medrol-treated rats also received daily doses of compound 1 as shown in Table D below. Mean blood pressure was measured by direct femoral arterial cannulation under fed conditions on day 7 and after a 6 hour fast on day 8. The data are mean and (SEM) mean blood pressure obtained by direct cannulation. N=9; * p<0.05 less than blood pressure in Medrol-treated rats.

[2] = test system: Male salt-sensitive Dahl rats; experiment: Blood pressure (systolic and diastolic) and heart rate by telemetry in hypertensive Dahl rats; format: in vivo, rat; conditions: for Diastolic blood pressure measured by telemetry, Mean / Heart rate measured by telemetry, Mean / Systolic blood pressure measured by telemetry, Mean: 24 hour average
Experimental: Direct blood pressure (systolic and diastolic) and heart rate was also measured by telemetry (Tables F—H and FIG. 4). Data in Tables F—H and depicted in FIGS. 4A-4C are 24 hour averages for the last 4 days before the start of the daily oral gavage of treatments (−4, −3, −2, −1) and for the days 1-17 during the treatments shown.

PPARγ = target: T1, PPARγ (Homo sapiens, UniProt P37231); experiment: commercial PPARγ binding assay (Invitrogen; PPAR-LBD/Fluormone PPAR Green complex); conditions: for Binding to PPARγ (Fluormone displacement signal): mean of three experiments
T1 construct: purchased Invitrogen Corporation, Carlsbad, Calif
T1 sequence (P37231 238-503 limits assumed): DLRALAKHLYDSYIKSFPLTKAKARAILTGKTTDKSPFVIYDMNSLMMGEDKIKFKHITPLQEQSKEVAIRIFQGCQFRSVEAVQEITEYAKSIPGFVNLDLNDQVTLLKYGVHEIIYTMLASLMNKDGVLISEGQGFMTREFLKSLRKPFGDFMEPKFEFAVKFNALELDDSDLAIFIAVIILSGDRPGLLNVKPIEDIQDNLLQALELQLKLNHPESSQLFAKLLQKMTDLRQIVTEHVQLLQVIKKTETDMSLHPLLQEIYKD
Experimental: The ability of several exemplary compounds of the present invention, shown in Table A, to bind to PPARγ was measured using a commercial binding assay (Invitrogen Corporation, Carlsbad, Calif.) that measures the test compounds ability to bind with PPAR-LBD/Fluormone PPAR Green complex. These assays were performed on three occasions with each assay using four separate wells (quadruplicate) at each concentration of tested compound. The data are mean and SEM of the values obtained from the three experiments. […] Compounds were added at the concentrations shown, which range from 0.1-100 micromolar.

[3] = test system: Male salt-sensitive Dahl rats; experiment: Fasting free fatty acids (FFA) and adiponectin in treated Dahl rats; format: in vivo, rat; conditions: 3 weeks treatment; 40 mg/kg compound 1, 20 mg/kg rosiglitazone
Experimental: Doses of these compounds were chosen to produce the same metabolic effects in terms of reduction of triglycerides and elevation of adiponectin (Table E). Direct blood pressure (systolic and diastolic) and heart rate was also measured by telemetry (Tables F—H and FIG. 4).

[4] = day 1 of treatment, rosiglitazone 20 mg/kg, compound 1 40 mg/kg
[5] = day 2 of treatment, rosiglitazone 20 mg/kg, compound 1 40 mg/kg
[6] = day 3 of treatment, rosiglitazone 20 mg/kg, compound 1 40 mg/kg
[7] = day 4 of treatment, rosiglitazone 20 mg/kg, compound 1 40 mg/kg
[8] = day 5 of treatment, rosiglitazone 20 mg/kg, compound 1 40 mg/kg
[9] = day 6 of treatment, rosiglitazone 20 mg/kg, compound 1 40 mg/kg
[10] = day 7 of treatment, rosiglitazone 20 mg/kg, compound 1 40 mg/kg
[11] = day 8 of treatment, rosiglitazone 20 mg/kg, compound 1 40 mg/kg
[12] = day 9 of treatment, rosiglitazone 20 mg/kg, compound 1 40 mg/kg
[13] = day 10 of treatment, rosiglitazone 20 mg/kg, compound 1 40 mg/kg
[14] = day 11 of treatment, rosiglitazone 20 mg/kg, compound 1 40 mg/kg
[15] = day 12 of treatment, rosiglitazone 20 mg/kg, compound 1 40 mg/kg
[16] = day 13 of treatment, rosiglitazone 20 mg/kg, compound 1 40 mg/kg
[17] = day 14 of treatment, rosiglitazone 20 mg/kg, compound 1 40 mg/kg
[18] = day 15 of treatment, rosiglitazone 20 mg/kg, compound 1 40 mg/kg
[19] = day 16 of treatment, rosiglitazone 20 mg/kg, compound 1 40 mg/kg
[20] = day 17 of treatment, rosiglitazone 20 mg/kg, compound 1 40 mg/kg
[21] = day −1, before start of treatment
[22] = day −2, before start of treatment
[23] = day −3, before start of treatment
[24] = day −4, before start of treatment

Compound: CCc1ccc(C(=O)COc2ccc(CC3SC(=O)NC3=O)cc2)nc1 (centres unmarked) [Compound 1]
- Mean blood pressure, Fasted ([1]; 6 hour fast, day 8, oral gavage daily, Compound 1 40 mg/kg/day, HCTZ 5 mg/kg/day): 151
- antihypertensive action in combination with HCTZ (in words) ([1]; FIG. 2 and Table C): additive
- Mean blood pressure, Fed ([1]; fed, day 7, oral gavage daily, Compound 1 40 mg/kg/day, HCTZ 5 mg/kg/day): 167
- blood pressure lowering (in words) ([1]; hypertensive Dahl salt-sensitive rats): significantly lower blood pressure
- blood pressure lowering (in words) (male Sprague-Dawley rats): significantly lowered blood pressure
- Diastolic blood pressure measured by telemetry, Mean [2, 4]: 119
- Heart rate measured by telemetry, Mean [2, 4]: 420 bpm
- Systolic blood pressure measured by telemetry, Mean [2, 4]: 167
- Diastolic blood pressure measured by telemetry, Mean [2, 5]: 117
- Heart rate measured by telemetry, Mean [2, 5]: 414 bpm
- Systolic blood pressure measured by telemetry, Mean [2, 5]: 167
- Diastolic blood pressure measured by telemetry, Mean [2, 6]: 120
- Heart rate measured by telemetry, Mean [2, 6]: 406 bpm
- Systolic blood pressure measured by telemetry, Mean [2, 6]: 171
- Diastolic blood pressure measured by telemetry, Mean [2, 7]: 119
- Heart rate measured by telemetry, Mean [2, 7]: 405 bpm
- Systolic blood pressure measured by telemetry, Mean [2, 7]: 170
- Diastolic blood pressure measured by telemetry, Mean [2, 8]: 122
- Heart rate measured by telemetry, Mean [2, 8]: 400 bpm
- Systolic blood pressure measured by telemetry, Mean [2, 8]: 173
- Diastolic blood pressure measured by telemetry, Mean [2, 9]: 121
- Heart rate measured by telemetry, Mean [2, 9]: 395 bpm
- Systolic blood pressure measured by telemetry, Mean [2, 9]: 173
- Diastolic blood pressure measured by telemetry, Mean [2, 10]: 125
- Heart rate measured by telemetry, Mean [2, 10]: 389 bpm
- Systolic blood pressure measured by telemetry, Mean [2, 10]: 176
- Diastolic blood pressure measured by telemetry, Mean [2, 11]: 128
- Heart rate measured by telemetry, Mean [2, 11]: 394 bpm
- Systolic blood pressure measured by telemetry, Mean [2, 11]: 180
- Diastolic blood pressure measured by telemetry, Mean [2, 12]: 129
- Heart rate measured by telemetry, Mean [2, 12]: 388 bpm
- Systolic blood pressure measured by telemetry, Mean [2, 12]: 182
- Diastolic blood pressure measured by telemetry, Mean [2, 13]: 132
- Heart rate measured by telemetry, Mean [2, 13]: 389 bpm
- Systolic blood pressure measured by telemetry, Mean [2, 13]: 185
- Diastolic blood pressure measured by telemetry, Mean [2, 14]: 132
- Heart rate measured by telemetry, Mean [2, 14]: 389 bpm
- Systolic blood pressure measured by telemetry, Mean [2, 14]: 184
- Diastolic blood pressure measured by telemetry, Mean [2, 15]: 132
- Heart rate measured by telemetry, Mean [2, 15]: 391 bpm
- Systolic blood pressure measured by telemetry, Mean [2, 15]: 187
- Diastolic blood pressure measured by telemetry, Mean [2, 16]: 135
- Heart rate measured by telemetry, Mean [2, 16]: 388 bpm
- Systolic blood pressure measured by telemetry, Mean [2, 16]: 189
- Diastolic blood pressure measured by telemetry, Mean [2, 17]: 135
- Heart rate measured by telemetry, Mean [2, 17]: 385 bpm
- Systolic blood pressure measured by telemetry, Mean [2, 17]: 192
- Diastolic blood pressure measured by telemetry, Mean [2, 18]: 137
- Heart rate measured by telemetry, Mean [2, 18]: 390 bpm
- Systolic blood pressure measured by telemetry, Mean [2, 18]: 193
- Diastolic blood pressure measured by telemetry, Mean [2, 19]: 138
- Heart rate measured by telemetry, Mean [2, 19]: 389 bpm
- Systolic blood pressure measured by telemetry, Mean [2, 19]: 197
- Diastolic blood pressure measured by telemetry, Mean [2, 20]: 141
- Heart rate measured by telemetry, Mean [2, 20]: 388 bpm
- Systolic blood pressure measured by telemetry, Mean [2, 20]: 195
- Diastolic blood pressure measured by telemetry, Mean [2, 21]: 125
- Heart rate measured by telemetry, Mean [2, 21]: 393 bpm
- Systolic blood pressure measured by telemetry, Mean [2, 21]: 173
- Diastolic blood pressure measured by telemetry, Mean [2, 22]: 127
- Heart rate measured by telemetry, Mean [2, 22]: 398 bpm
- Systolic blood pressure measured by telemetry, Mean [2, 22]: 175
- Diastolic blood pressure measured by telemetry, Mean [2, 23]: 123
- Heart rate measured by telemetry, Mean [2, 23]: 400 bpm
- Systolic blood pressure measured by telemetry, Mean [2, 23]: 170
- Diastolic blood pressure measured by telemetry, Mean [2, 24]: 124
- Heart rate measured by telemetry, Mean [2, 24]: 406 bpm
- Systolic blood pressure measured by telemetry, Mean [2, 24]: 171
- effect on heart rate (in words) ([2]; telemetry, Tables F-H): reducing heart rate
- reduction of blood pressure compared with rosiglitazone (in words) ([2]; telemetry, Tables F-H): more effective in reducing blood pressure
- Binding to PPARγ (Fluormone displacement signal) (PPARγ; 1 μM compound): 223
- Binding to PPARγ (Fluormone displacement signal) (PPARγ; 3 μM compound): 228
- Binding to PPARγ (Fluormone displacement signal) (PPARγ; 10 μM compound): 207
- Binding to PPARγ (Fluormone displacement signal) (PPARγ; 50 μM compound): 174
- Binding to PPARγ (Fluormone displacement signal) (PPARγ; 100 μM compound): 170
- Binding to PPARγ (Fluormone displacement signal) (PPARγ; .1 μM compound): 227
- Binding to PPARγ (Fluormone displacement signal) (PPARγ; .3 μM compound): 232
- binding to PPARγ (in words) (PPARγ; FIG. 1 and Table B): particularly poor binders
- Adiponectin [3]: 36*
- FFA [3]: 0.70*
